Columns and labels:
[1] = tested on: MCF7 human breast carcinoma cells; assay: Cell viability / proliferation assay (CELLTITER-GLO, dose matrix) in MCF7 cells; assay type: cell-based
Method: FIG. 1 is a series of graphs showing the effect of the combination of COMPOUND A with ANTIBODY A on MCF7 cell proliferation under the presence of IGF-1 (100 ng/ml). Briefly, MCF7 cells were treated in 384-well format for 5 days with COMPOUND A and ANTIBODY A in the presence of 100 ng/ml of IGF1 in SD medium. […] Each data point represents averaged data from 3 wells+standard deviation, and the color spectrum also represents the level of the inhibition. A red rectangle highlights the region where the combination is more efficacious than the single agents the same dose.
COMPOUND A (10 mM), stored in aliquots at −20° C. ANTIBODY A (0.2 mM in 1% BSA), stored in aliquots at 4° C. […]
Cell viability was determined by measuring cellular ATP content using the CELLTITER-GLO (CTG) luminescent cell viability assay (Promega). […] An equal volume of the CTG reagents was added to each well at the end of the compound treatment and luminescence was recorded on an ENVISION plate reader (Perkin Elmer). Reduced and enhanched luminescent signal values (responses) were calculated relative to untreated (control) cells. […]
The synergistic interaction (analyzed using Chalice software [CombinatoRx, Cambridge Mass.]) was calculated by comparing the response from a combination to the response of the agent acting alone, against the drug-with-itself dose-additive reference model. […]

MCF7 xenograft = MCF7 xenograft in mice, tumor volume; assay type: in vivo
Method: MCF-7 cells (purchased from American Type Culture Collection (ATCC)) were tested free of mycoplasma and viral contamination in the IMPACT VIII PCR assay panel (RADIL, MU Research Animal Diagnostic Laboratory, Columbia, Mo.). MCF-7 cells were cultured in EMEM medium (ATCC#30-2003) containing 10% heat-inactivated fetal bovine serum. Mice were implanted with 17b-estradiol pellets, 0.18 mg/pellet, 90-day release (Innovative research of America Catalog #NE-121), between the shoulder blades three days before the cell implant.
Treatment started on day 21 and concluded by day 59. Tumor volume of each group was measured. The effect of COMPOUND A and ANTIBODY A, as monotherapy and combination, was assessed by comparing: • (a) the percent change between Day 1 and endpoint day in the mean tumor volume of the treated group (T) and the control group (C) (herein referred to as “T/C”), and • (b) the percent change between Day 1 and the endpoint day in the mean tumor volume of the treated group compared to its initial volume (herein referred to as “T/T0”).

## Cc1nc(NC(=O)N2CCC[C@H]2C(N)=O)sc1-c1ccnc(C(C)(C)C(F)(F)F)c1 [COMPOUND A, (S)-Pyrrolidine-1,2-dicarboxylic acid 2-amide 1-({4-methyl-5-[2-(2,2,2-trifluoro-1,1-dimethyl-ethyl)-pyridin-4-yl]-thiazol-2-yl}-amide)]
[1]; MCF7, Experiment 1 summary
  MCF7 growth inhibition in vitro (summary in words): concentration-dependent tumor growth inhibition
[1]; MCF7, single agent, either in the presence or absence of IGF1
  anti-proliferative activity (in words): concentration dependent anti-proliferative activity
MCF7 xenograft; MCF7 xenograft in mice, Experiment 2 summary
  tumor outcome in MCF7 xenograft (summary in words): tumor stasis
MCF7 xenograft; MCF7 xenograft mice, COMPOUND A 30 mg/kg qd po, ANTIBODY A 12 mg/kg q2w ip, treatment day 21 to day 59
  T/C (percent change in mean tumor volume, treated vs control group): 10%
